For test [1], the system named is Caco2 cells. The experiment in a line: Determination of intracellular zinc concentration with Zinquin ethyl ester. Type of test: cell-based, human. To be noted: 5 µM sodium pyrithione added to 5 µM ZnSO4, 30 min.
Experimental: Confluent Caco2 cells in a Φ10-cm culture dish were subjected to serum starvation overnight and incubated with 10 µM MG132 for 30 min. […] The cells were harvested by trypsinization, washed with PBS and suspended at the density of 5 × 10^6 cells/ml in Hanks’ balanced salt solution (HBSS). After the addition of 1 mg/ml Zinquin ethyl ester (Dojindo Laboratories, Kumamoto, Japan)[27] dissolved in DMSO at the final concentration of 25 µM, the cell suspension was incubated at 37 °C for 30 min. Subsequently, the cells were washed three times with HBSS, suspended in HBSS at the density of 5 × 10^6 cells/ml and subjected to measurement of the fluorescence emission at 490 nm with the excitation at 370 nm by POLARstar Omega-25.
The target of another test is T1, human PLCε (Homo sapiens, UniProt Q9P212).
T1 construct: expressing the full-length polypeptides of human PLCε, PLCβ4, PLCδ1 and PLCγ1 as FLAG fusions; made in house; host or cells: Expi293F cells
The experiment in a line: In vitro PLC assay using fluorogenic substrate Compound 1 (HTS), PLCε. The class given is biochemical. To be noted: Compound 1 as substrate, varying concentrations. Here is the method:
For measuring inhibition by compounds for HTS, the reactions were conducted at RIKEN Center for Sustainable Resource Science (CSRS) as described above except that 5 µl of compound solution and 5 µl of purified PLCe (120 ng) were added to each well. […] For determination of the IC50 values for ZPT and Zn^2+, the EDTA concentration was reduced to one-tenth to avoid its zinc-chelating effect. For assay of the other PLC classes, the reactions were performed similarly except that PLCβ4 (5 ng), PLCδ1 (0.1 ng) or PLCγ1 (0.3 ng) was used instead of PLCε.

Test [2] deals with intestinal tumours of Apc^Min/+ mice. The experiment in a line: Intestinal tumourigenesis of Apc^Min/+ mice. Type of test: in vivo. To be noted: i.p. 3 days per week for 11 weeks, ZPT 2.5 or 5 mg/kg, dipyrithione 5 mg/kg. Here is the method: Five weeks-old Apc^Min/+ mice were administered intraperitoneally with ZPT, dipyrithione or the vehicle 3 days per week for 11 weeks. Thereafter, the mice were sacrificed and the whole small intestines were excised, rolled up in a ‘Swiss roll’ configuration, embedded in OCT compound and longitudinally sectioned at the 10-µm thickness. One section in the middle position of each intestine was subjected to H&E staining after fixation with 4% PFA, and tumours in the whole section were classified under microscope into hyperplasias, low-grade adenomas, high-grade adenomas and adenocarcinomas according to the histopathological criteria recommended for the study of mouse models of intestinal cancer. The classification was conducted by a pathologist at Pathology Analysis Center (Kanagawa, Japan) under the blind condition regarding the compound administration.

Test [3] relates to Caco2 cells. The experiment in a line: Tumour xenograft of Caco2 cells in nude mice. The following applies: i.p. 3 days per week for 8 weeks, ZPT 2.5, 5 or 10 mg/kg, dipyrithione 5 mg/kg. The class given is in vivo. Here is the method: (§1) Tumour xenograft experiments were performed as previously described. Briefly, SW480 or Caco2 cells (5 × 10^6 cells each) were implanted subcutaneously into the right flanks of female athymic nude (nu/nu) mice (6–8 weeks old, CLEA Japan). One week later, the mice were administered intraperitoneally with ZPT, dipyrithione or the vehicle 3 days per week for 3 or 8 weeks, respectively, during which the volumes (V) of the tumours, calculated by the following formula: V = A × B^2/2 (A: the largest diameter, B: the perpendicular diameter), and the body weight were monitored every 7 days. Thereafter, tumours of the SW480-grafted mice were dissected, weighed, fixed in 4% paraformaldehyde, embedded in paraffin and serially sectioned. The Sect. (10-µm thick) were subjected to immunohistochemical detection of phosphorylated PKD by using anti-phospho-PKD antibody and HISTMOUSE-PLUS Kit (ZYMED Lab., Carlsbad, CA) according to the manufacturer’s protocol.

A further test relates to SW620 cells. The experiment in a line: Experimental lung metastasis of SW620 cells in nude mice. The class given is in vivo. The following applies: i.p. twice, one week before and after cell injection, ZPT 2.5 or 5 mg/kg, dipyrithione 5 mg/kg. The procedure:
Female nude mice (6–8 weeks old) were injected with SW620 cells (1 × 10^7 cells) suspended in 200 µl L-15 medium via tail vein and maintained for further 8 weeks. ZPT, dipyrithione or the vehicle was administered intraperitoneally to the mice twice, 1 week before and after the cell injection. Thereafter, the mice were sacrificed, and their lungs were excised, fixed in 4% PFA, embedded in paraffin and serially sectioned. The Sect. (10-µm thick) were subjected to H&E staining. For histologic evaluation of lung micro-metastasis, the number of micro-metastatic nodules in 3 non-contiguous lung sections from each mouse was counted under a light microscope as described previously.

In the next test the test system is SW480 cells. Put plainly: Tumour xenograft of SW480 cells in nude mice. The class given is in vivo. To be noted: i.p. 3 days per week for 3 weeks, ZPT 2.5, 5 or 10 mg/kg, dipyrithione 5 mg/kg. Here is the method: as §1
In test [4] the test system is DSS-induced inflammatory colitis. Put plainly: DSS-induced inflammatory colitis. To be noted: 2.5% DSS 7 days; i.p. once a day, ZPT 2.5, 5 or 10 mg/kg, dipyrithione 10 mg/kg. Type of test: in vivo, mice. Here is the method: To induce inflammatory colitis, 10 weeks-old C57BL/6JJc1 mice were allowed to take drinking water containing 2.5% (w/v) DSS (molecular weight 36,000 ~ 50,000; Wako Pure Chemical, Osaka, Japan) ad libitum for 7 days[9],[30]. During this period, they were administered intraperitoneally with ZPT, dipyrithione or a vehicle (0.5% carboxymethyl cellulose and 0.9% NaCl) once a day. Thereafter, their colons were excised, washed with PBS, dissected longitudinally, fixed in 4% paraformaldehyde (PFA), embedded in paraffin and serially sectioned as described. The Sect. (10-µm thick) were subjected to H&E staining. Images were taken with an Olympus FSX100 microscope and Olympus FSX100-BSW software. The severity of inflammatory colitis was also assessed by measuring the body weight loss and the colon length shortening.

Another test deals with PLC. To be noted: cited from earlier work.

T1 sequence (Q9P212 whole entry, the tested form may be a part): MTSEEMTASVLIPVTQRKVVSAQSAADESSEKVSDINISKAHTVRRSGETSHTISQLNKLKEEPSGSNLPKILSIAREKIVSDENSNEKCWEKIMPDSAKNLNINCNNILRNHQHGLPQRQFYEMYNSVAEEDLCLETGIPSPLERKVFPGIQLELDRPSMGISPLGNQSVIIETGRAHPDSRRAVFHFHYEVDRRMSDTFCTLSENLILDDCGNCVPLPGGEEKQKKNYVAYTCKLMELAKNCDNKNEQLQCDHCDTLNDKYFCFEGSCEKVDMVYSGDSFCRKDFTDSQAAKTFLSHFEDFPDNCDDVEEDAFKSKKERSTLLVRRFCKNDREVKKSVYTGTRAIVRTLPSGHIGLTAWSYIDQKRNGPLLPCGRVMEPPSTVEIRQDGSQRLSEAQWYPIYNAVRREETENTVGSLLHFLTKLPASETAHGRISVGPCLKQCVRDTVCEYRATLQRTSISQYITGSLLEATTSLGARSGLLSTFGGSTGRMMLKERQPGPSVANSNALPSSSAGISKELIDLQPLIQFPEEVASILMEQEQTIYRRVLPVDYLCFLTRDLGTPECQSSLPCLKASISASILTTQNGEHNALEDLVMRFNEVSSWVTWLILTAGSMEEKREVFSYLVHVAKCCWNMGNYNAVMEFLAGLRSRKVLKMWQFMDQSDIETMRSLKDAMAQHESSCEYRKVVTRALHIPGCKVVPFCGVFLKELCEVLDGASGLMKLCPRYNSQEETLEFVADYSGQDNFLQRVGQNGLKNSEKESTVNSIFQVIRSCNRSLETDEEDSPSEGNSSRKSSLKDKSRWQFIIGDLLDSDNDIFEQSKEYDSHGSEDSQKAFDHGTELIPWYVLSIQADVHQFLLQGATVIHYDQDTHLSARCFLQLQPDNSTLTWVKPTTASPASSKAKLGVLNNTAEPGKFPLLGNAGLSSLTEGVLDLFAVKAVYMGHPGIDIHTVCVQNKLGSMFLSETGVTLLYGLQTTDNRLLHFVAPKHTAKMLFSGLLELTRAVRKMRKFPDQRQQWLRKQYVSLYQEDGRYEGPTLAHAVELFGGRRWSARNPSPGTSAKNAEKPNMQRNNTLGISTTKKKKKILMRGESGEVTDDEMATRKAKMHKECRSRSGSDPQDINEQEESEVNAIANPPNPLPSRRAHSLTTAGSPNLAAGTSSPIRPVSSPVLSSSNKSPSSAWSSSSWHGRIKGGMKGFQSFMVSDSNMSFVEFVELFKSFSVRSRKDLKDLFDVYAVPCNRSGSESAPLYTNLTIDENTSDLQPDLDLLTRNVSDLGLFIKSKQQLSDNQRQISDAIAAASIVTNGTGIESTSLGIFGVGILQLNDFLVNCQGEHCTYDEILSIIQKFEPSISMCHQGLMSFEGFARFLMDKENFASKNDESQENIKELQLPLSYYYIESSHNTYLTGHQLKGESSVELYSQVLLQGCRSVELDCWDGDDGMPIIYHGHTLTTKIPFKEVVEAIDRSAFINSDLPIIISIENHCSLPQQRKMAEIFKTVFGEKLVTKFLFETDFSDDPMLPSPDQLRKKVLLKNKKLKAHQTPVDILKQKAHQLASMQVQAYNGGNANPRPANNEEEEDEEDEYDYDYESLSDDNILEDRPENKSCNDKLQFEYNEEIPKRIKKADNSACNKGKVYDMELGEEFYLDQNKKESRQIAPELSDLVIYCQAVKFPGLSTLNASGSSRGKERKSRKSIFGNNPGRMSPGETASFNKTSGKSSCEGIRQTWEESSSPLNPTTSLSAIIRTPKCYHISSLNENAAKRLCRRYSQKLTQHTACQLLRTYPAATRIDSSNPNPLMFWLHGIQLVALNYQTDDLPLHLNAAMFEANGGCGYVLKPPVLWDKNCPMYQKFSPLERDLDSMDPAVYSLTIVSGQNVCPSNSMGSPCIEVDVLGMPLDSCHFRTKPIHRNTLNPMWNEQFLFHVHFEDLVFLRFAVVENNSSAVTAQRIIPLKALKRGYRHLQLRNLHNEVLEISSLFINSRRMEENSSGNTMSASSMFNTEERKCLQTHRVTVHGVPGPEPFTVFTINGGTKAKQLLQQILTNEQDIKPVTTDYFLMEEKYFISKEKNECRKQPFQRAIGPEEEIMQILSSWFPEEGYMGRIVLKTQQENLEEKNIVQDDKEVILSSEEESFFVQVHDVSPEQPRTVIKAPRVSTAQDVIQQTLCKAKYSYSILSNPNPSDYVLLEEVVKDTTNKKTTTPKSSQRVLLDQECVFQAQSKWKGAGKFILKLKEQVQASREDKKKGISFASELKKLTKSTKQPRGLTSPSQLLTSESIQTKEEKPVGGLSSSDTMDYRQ

With `On1ccccc1=S` [sodium pyrithione], in the test on Caco2 cells [1], the “increase in intracellular Zn^2+ concentration” value is 8.78 fold. Besides, the “inhibition of PLCε” value on human PLCε is recorded as “failed to inhibit PLCε”.

As to `[O-][n+]1ccccc1SSc1cccc[n+]1[O-]` [dipyrithione], the “ratio of high-grade adenomas / progression of low-grade to high-grade adenomas” value in test [2] is given as “appeared to accelerate the progression of low-grade adenomas to high-grade adenomas”. In the test with Caco2 cells [3], the “growth of grafted cells (tumour volume)” value is recorded as “not”. The “numbers of micro-metastatic nodules in lung sections” value with SW620 cells was “exhibited no effect”. Moreover, the “growth of grafted cells (tumour volume)” value with SW480 cells is listed as “not”. Also, the “inhibition of PLCε” value on human PLCε is recorded as “failed to inhibit PLCε”. Moreover, in test [4], the body weight loss entry was “failed to alleviate”; the colon length shortening entry is on record as “failed to alleviate”; the “histology: erosion of the mucosa, swelling of the submucosa and leukocyte infiltration” value was “failed to alleviate”.

For the compound `COc1ccc2c(c1)CC[C@@H]1[C@@H]2CC[C@]2(C)[C@@H](NCCCCCCN3C(=O)C=CC3=O)CC[C@@H]12` [U73122], the “inhibition of PLC catalytic activity in vitro” value in the test with PLC is “failed to inhibit PLC catalytic activity in vitro”.

Source of the values: paper PMC12647759 (Scientific Reports, 2025).
